Assay results reported in PubChem BioAssay (NCI).
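Protocol summary: plate cells (96-well), add compound at 5 concentrations, incubate 48 h, interpolate endpoints linearly. GI50: concentration for 50% inhibition of growth. At the TGI there is no net growth.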

What was measured:
Assay in all cases: DTP human tumour cell line panel, 48 h
[1] = system: HL-60(TB) leukemia
[2] = system: UACC-257 melanoma
[3] = system: NCI-H226 lung
[4] = system: OVCAR-4 ovarian
[5] = system: HS 578T breast
[6] = system: HT29 colon
[7] = system: SN12C renal
[8] = system: A549 NSCLC
[9] = system: TK-10 renal
[10] = system: KM12 colon
[11] = system: EKVX NSCLC
[12] = system: SW-620 colon
[13] = system: NCI-H522 lung
[14] = system: RPMI-8226 leukemia
[15] = system: MDA-MB-231 breast
[16] = system: CAKI-1 renal
[17] = system: SNB-75 CNS
[18] = system: SK-MEL-28 melanoma
[19] = system: HOP-92 NSCLC
[20] = system: NCI-H23 lung
[21] = system: HOP-62 NSCLC
[22] = system: IGROV1 ovarian
[23] = system: UO-31 renal
[24] = system: SF-295 CNS
[25] = system: MALME-3M melanoma
[26] = system: SF-268 CNS
[27] = system: ACHN renal
[28] = system: HCT-15 colon
[29] = system: OVCAR-3 ovarian
[30] = system: M14 melanoma
[31] = system: MDA-MB-435
[32] = system: LOX IMVI melanoma
[33] = system: PC-3 prostate
[34] = system: OVCAR-5 ovarian
[35] = system: RXF 393 renal
[36] = system: UACC-62 melanoma
[37] = system: CCRF-CEM leukemia
[38] = system: HCT-116 colon
[39] = system: COLO 205 colon
[40] = system: 786-0 renal
[41] = system: MCF7 breast
[42] = system: A498 renal
[43] = system: SF-539 CNS
[44] = system: NCI-H460 lung
[45] = system: DU-145 prostate
[46] = system: SK-MEL-5 melanoma
[47] = system: BT-549 breast
[48] = system: NCI/ADR-RES ovarian
[49] = system: SK-MEL-2 melanoma
[50] = system: SNB-19 CNS
[51] = system: HCC-2998 colon

## O=c1c2cc(F)ccc2sc2c(NCCCNCCO)nc3ccccc3c12
[1]
  GI50: 2 µM
  TGI: 4.02 µM
[2]
  GI50: 1.98 µM
  TGI: 3.94 µM
[3]
  GI50: 1.5 µM
  TGI: 3 µM
[4]
  GI50: 1.92 µM
  TGI: 4.05 µM
[5]
  GI50: 1.7 µM
  TGI: 3.74 µM
[6]
  GI50: 1.75 µM
  TGI: 3.43 µM
[7]
  GI50: 1.67 µM
  TGI: 3.17 µM
[8]
  GI50: 1.79 µM
  TGI: 3.78 µM
[9]
  GI50: 1.89 µM
  TGI: 3.53 µM
[10]
  GI50: 1.84 µM
  TGI: 3.52 µM
[11]
  GI50: 1.67 µM
  TGI: 3.47 µM
[12]
  GI50: 1.62 µM
  TGI: 3.14 µM
[13]
  GI50: 1.87 µM
  TGI: 3.8 µM
[14]
  GI50: 2.08 µM
  TGI: 4.63 µM
[15]
  GI50: 1.56 µM
  TGI: 3.03 µM
[16]
  GI50: 1.61 µM
  TGI: 2.97 µM
[17]
  GI50: 1.5 µM
  TGI: 2.96 µM
[18]
  GI50: 1.75 µM
  TGI: 3.25 µM
[19]
  GI50: 1.23 µM
  TGI: 3.14 µM
[20]
  GI50: 1.72 µM
  TGI: 3.22 µM
[21]
  GI50: 1.77 µM
  TGI: 3.69 µM
[22]
  GI50: 1.43 µM
  TGI: 2.9 µM
[23]
  GI50: 1.57 µM
  TGI: 2.96 µM
[24]
  GI50: 1.77 µM
  TGI: 3.26 µM
[25]
  GI50: 1.61 µM
  TGI: 3.09 µM
[26]
  GI50: 1.59 µM
  TGI: 3.21 µM
[27]
  GI50: 1.67 µM
  TGI: 3.03 µM
[28]
  GI50: 1.63 µM
  TGI: 3.12 µM
[29]
  GI50: 1.9 µM
  TGI: 3.55 µM
[30]
  GI50: 1.87 µM
  TGI: 3.62 µM
[31]
  GI50: 1.79 µM
  TGI: 3.4 µM
[32]
  GI50: 1.68 µM
  TGI: 3.17 µM
[33]
  GI50: 1.7 µM
  TGI: 3.29 µM
[34]
  GI50: 1.61 µM
  TGI: 3.05 µM
[35]
  GI50: 1.49 µM
  TGI: 2.9 µM
[36]
  GI50: 1.73 µM
  TGI: 3.23 µM
[37]
  GI50: 2.02 µM
  TGI: 4.76 µM
[38]
  GI50: 1.73 µM
  TGI: 3.32 µM
[39]
  GI50: 2.08 µM
  TGI: 4.66 µM
[40]
  GI50: 1.53 µM
  TGI: 3.07 µM
[41]
  GI50: 1.41 µM
  TGI: 2.94 µM
[42]
  GI50: 1.67 µM
  TGI: 3.32 µM
[43]
  GI50: 1.74 µM
  TGI: 3.19 µM
[44]
  GI50: 1.64 µM
  TGI: 3.19 µM
[45]
  GI50: 1.72 µM
  TGI: 3.13 µM
[46]
  GI50: 1.76 µM
  TGI: 3.2 µM
[47]
  GI50: 8.7 µM
  TGI: 22 µM
[48]
  GI50: 1.78 µM
  TGI: 3.44 µM
[49]
  GI50: 1.94 µM
  TGI: 4.01 µM
[50]
  GI50: 1.66 µM
  TGI: 3.14 µM
[51]
  GI50: 1.69 µM
  TGI: 3.34 µM
